From PMC8406801, “Naringenin Inhibits Platelet Activation and Arterial Thrombosis Through Inhibition of Phosphoinositide 3-Kinase and Cyclic Nucleotide Signaling” (Frontiers in Pharmacology, 2021)
Values joined by “and” are separate entries in the source; they are usually repeats but may differ in a detail not shown here. Identical values can stand only once. Like-named read-outs stand apart in the source and are kept apart here.

Experiments:
[1] = Cytotoxicity: LDH leakage from platelets; assay type: cell-based; conditions: rat
Protocol: To assess the potential cytotoxicity of naringenin, lactate dehydrogenase (LDH) leakage from platelets were determined. Washed platelets were preincubated with either various concentrations of naringenin or vehicle at 37°C for 5 min and then centrifuged at 350 × g for 3 min at room temperature. The supernatant was detected by LDH assay kit (Beyotime Biotechnology, Shanghai, China). LDH leakage was expressed as percentages of the total LDH leakage in platelets completely lysed with 0.1% Triton X-100.

[2] = system: integrin αIIbβ3 inside-out signaling (fibrinogen binding) in washed platelets; assay: ADP-stimulated fibrinogen binding (flow cytometry); assay type: cell-based, rat; conditions: ADP 10 μM; for Fibrinogen binding (%): single replicates; for fibrinogen binding: mean ± SD, n = 3, 55.67 ± 9.62% with ADP alone
Protocol: Flow cytometric assays were performed as described previously ([Wang et al., 2019]). ADP-stimulated P-selectin exposure and fibrinogen binding were determined in washed platelets. […] The platelets were immediately incubated with PE-labeled CD62P or FITC-labeled fibrinogen in the dark at room temperature for 15 min. The cells were finally fixed with 1% (v/v) paraformaldehyde prior to analysis using an Accuri C6 flow cytometer (BD Biosciences, United States).

[3] = system: intracellular calcium in washed platelets; assay: Calcium mobilization in ADP-induced platelets (Fluo 3-AM, flow cytometry); assay type: cell-based, rat; conditions: for Calcium mobilisation (%): ADP 10 μM, single replicates
Protocol: Calcium mobilization in ADP-induced platelets was measured using flow cytometry. Washed platelets were incubated with Fluo 3-AM (5 μM) at 37°C for 30 min and washed. The Fluo 3-loaded platelets were preincubated with vehicle or different concentrations of naringenin at 37°C for 5 min in the presence of 1 mM CaCl2 and then stimulated with ADP (10 μM) for 5 min. The fluorescence intensity was analyzed using an Accuri C6 flow cytometer.

[4] = system: washed platelets on fibrinogen-coated coverslips; assay: Platelet spreading on fibrinogen; assay type: cell-based, rat; conditions: for surface coverage, platelet spreading on fibrinogen: mean ± SD, n = 3, vehicle 30.37 ± 3.31%; for Area (%) of platelets spread on fibrinogen: single replicates
Protocol: Washed platelets were incubated with vehicle or various concentrations of naringenin at 37°C for 10 min in the presence of 2 mM CaCl2 and allowed to spread on fibrinogen-coated coverslips for 45 min at 37°C ([Liu et al., 2016]). After washed three times with phosphate-buffered saline (PBS), adherent platelets were fixed with 4% paraformaldehyde, permeabilized with 0.1% Triton X-100 and stained with TRITC-conjugated phalloidin (1 μg/ml) in the dark at room temperature for 60 min. Adherent platelets were observed under an inverted fluorescence microscope (Nikon TE-2000S) and processed using Image J software.

[5] = system: Akt Ser473 phosphorylation; assay: Immunoblotting of phospho-Akt (Ser473) in ADP-stimulated washed platelets; assay type: cell-based, rat; conditions: single replicates; for p-Akt Ser473 / t-Akt: raw data
Protocol: For in vitro platelet aggregation, aliquots of washed platelets were preincubated with vehicle or various concentrations of naringenin for 5 min and stimulated with ADP (10 μmol/L) under stirring at 37°C for 5 min. For ex vivo platelet aggregation, PRP was incubated at 37°C for 5 min and stimulated with ADP (5 μmol/L) under stirring at 37 °C. The platelet aggregation was terminated by adding ethylenediaminetetraacetic acid (EDTA; 10 mM). Total protein was prepared using RIPA lysis buffer and protein content was determined by bicinchoninic acid (BCA) protein assay kit. Equal amounts of platelet proteins (30 μg) were separated on 10% SDS polyacrylamide gel electrophoresis (SDS-PAGE) and then transferred to poly vinylidene difluoride (PVDF) membranes and subjected to western blot. Blots were blocked with TBS-Tween 20 containing 5% BSA and probed with primary antibodies diluted in blocking solution at 4°C overnight followed by incubation with the corresponding HRP secondary antibodies. The protein bands were visualized using enhanced chemiluminescence (ECL).
FIGURE 4 Naringenin inhibits PI3K-mediated signaling in ADP-induced platelets. Washed rat platelets were preincubated without or with naringenin at 37°C for 5 min, and then stimulated with ADP (10 μmol/L) under stirring for 5 min. Platelet proteins were then extracted and analyzed by immunoblotting using PI3Kp110β antibody (A) and phospho-specific antibodies such as Akt^Ser473 (B), Akt^Thr308 (C), ERK1/2^Thr202/Tyr204 (D) and GSK3β^Ser9 (E). Total level of GAPDH was measured on each sample as a loading control. The blots shown are representative of three separate experiments. The relative protein expression levels were quantified by ImageJ 1.47v software. The level of relative protein expression obtained with vehicle control (0 μM) was taken as 1. R represents the level of relative protein expression in resting platelets. Data are expressed as means ± SD (n = 3). *p < 0.05, **p < 0.01, ***p < 0.001 compared with the vehicle control group.
FIGURE 5 Effects of naringenin combined with PI3K pan inhibitor LY294002 on platelet aggregation and Akt phosphorylation. Washed rat platelets were preincubated with naringenin (200 μmol/L) alone, the PI3K pan inhibitor LY294002 (5 μmol/L) alone or both for 5 min prior to ADP (10 μmol/L) activation. After stimulation with ADP, platelet aggregation was quantified and expressed as a percentage (A). Data are expressed as means ± SD (n = 6). ***p < 0.001 compared with the ADP-treated group, ^### p < 0.001 compared with naringenin alone or LY294002 alone. Platelet proteins were then extracted and specific antibodies were used to measure the level of total and phosphorylated Akt (B). The blots shown are representative of three separate experiments. The relative protein expression levels were quantified by ImageJ 1.47v software. The level of phosphorylation obtained in the ADP-treated group was taken as 1. Data are expressed as means ± SD (n = 3). ***p < 0.001 compared with the ADP-treated group, ^### p < 0.001 compared with naringenin alone or LY294002 alone.

[6] = Figure 5B: ADP 10 μM, naringenin 200 μM alone

O=C1C[C@@H](c2ccc(O)cc2)Oc2cc(O)cc(O)c21 [Naringenin]
cytotoxicity at 5 min, 100 µM ([1]; Cytotoxicity (%)): 0.99 ± 0.21% | cytotoxicity at 5 min, 200 µM ([1]; Cytotoxicity (%)): 1.16 ± 0.39% | cytotoxicity at 5 min, 400 μM ([1]; Cytotoxicity (%)): 2.11 ± 0.81% | cytotoxicity at 5 min, 800 μM ([1]; Cytotoxicity (%)): 2.5 ± 0.85% | cytotoxicity at 5 min, 400 μM ([1]; washed platelets, naringenin 400 μM, LDH leakage, Table 1, read-out: Cytotoxicity (%)): 1.94% | cytotoxicity at 5 min, 800 μM ([1]; washed platelets, naringenin 800 μM, LDH leakage, Table 1, read-out: Cytotoxicity (%)): 1.94% | Fibrinogen binding (%) ([2]; 200 μM): 42.78% and 35.40% and 54.20% | fibrinogen binding ([2]; 400 μM): 31.74 ± 5.85% | Fibrinogen binding (%) ([2]; 400 μM): 31.71% and 25.90% and 37.60% | fibrinogen binding ([2]; 800 μM): 20.48 ± 4.63% | Fibrinogen binding (%) ([2]; 800 μM): 21.04% and 15.60% and 24.80% | mobilization of intracellular calcium induced by ADP ([3]; 400 and 800 μM): significantly prevented | Calcium mobilisation (%) ([3]; 200 μM): 46.06% and 50.52% and 43.09% | Calcium mobilisation (%) ([3]; 400 μM): 35.32% and 30.53% and 43.33% | Calcium mobilisation (%) ([3]; 800 μM): 34.54% and 21.04% and 26.06% | surface coverage, platelet spreading on fibrinogen ([4]; 100 μM): 20.96 ± 5.08% | Area (%) of platelets spread on fibrinogen ([4]; 100 μM): 25.76% and 15.64% and 21.47% | surface coverage, platelet spreading on fibrinogen ([4]; 200 μM): 15.29 ± 1.87% | Area (%) of platelets spread on fibrinogen ([4]; 200 μM): 16.88% and 15.75% and 13.23% | surface coverage, platelet spreading on fibrinogen ([4]; 400 μM): 10.56 ± 0.79% | Area (%) of platelets spread on fibrinogen ([4]; 400 μM): 9.69% and 11.23% and 10.75% | surface coverage, platelet spreading on fibrinogen ([4]; 800 μM): 6.98 ± 2.74% | Area (%) of platelets spread on fibrinogen ([4]; 800 μM): 4.62% and 6.33% and 9.98% | p-Akt Ser473 / t-Akt ([5]; ADP 10 μmol/L, 100 μM): 0.1822 and 0.1825 and 0.1171 | p-Akt Ser473 / t-Akt (Fold to ADP only) ([5]; ADP 10 μmol/L, 100 μM): 0.4309 Fold to ADP only and 0.4315 Fold to ADP only and 0.2769 Fold to ADP only | p-Akt Ser473 / t-Akt ([5]; ADP 10 μmol/L, 200 μM): 0.1611 and 0.1671 and 0.0697 | p-Akt Ser473 / t-Akt (Fold to ADP only) ([5]; ADP 10 μmol/L, 200 μM): 0.3810 Fold to ADP only and 0.3953 Fold to ADP only and 0.1648 Fold to ADP only | p-Akt Ser473 / t-Akt ([5]; ADP 10 μmol/L, 400 μM): 0.1761 and 0.0969 and 0.0748 | p-Akt Ser473 / t-Akt (Fold to ADP only) ([5]; ADP 10 μmol/L, 400 μM): 0.4165 Fold to ADP only and 0.2292 Fold to ADP only and 0.1768 Fold to ADP only | p-Akt Ser473 / t-Akt ([5]; ADP 10 μmol/L, 800 μM): 0.0725 and 0.0226 and 0.0288 | p-Akt Ser473 / t-Akt (Fold to ADP only) ([5]; ADP 10 μmol/L, 800 μM): 0.1714 Fold to ADP only and 0.0534 Fold to ADP only and 0.0681 Fold to ADP only | p-Akt Ser473 / t-Akt [5, 6]: 0.5270 and 0.4157 and 0.3312 | p-Akt Ser473 / t-Akt (Fold to ADP only) [5, 6]: 0.6055 Fold to ADP only and 0.4777 Fold to ADP only and 0.3805 Fold to ADP only
